Biological target: T1, recombinant human CD73 (Homo sapiens, UniProt P21589)
T1 construct: purchased BPS Bioscience 71184 (enzyme); kit #72055
T1 sequence (P21589 27-549): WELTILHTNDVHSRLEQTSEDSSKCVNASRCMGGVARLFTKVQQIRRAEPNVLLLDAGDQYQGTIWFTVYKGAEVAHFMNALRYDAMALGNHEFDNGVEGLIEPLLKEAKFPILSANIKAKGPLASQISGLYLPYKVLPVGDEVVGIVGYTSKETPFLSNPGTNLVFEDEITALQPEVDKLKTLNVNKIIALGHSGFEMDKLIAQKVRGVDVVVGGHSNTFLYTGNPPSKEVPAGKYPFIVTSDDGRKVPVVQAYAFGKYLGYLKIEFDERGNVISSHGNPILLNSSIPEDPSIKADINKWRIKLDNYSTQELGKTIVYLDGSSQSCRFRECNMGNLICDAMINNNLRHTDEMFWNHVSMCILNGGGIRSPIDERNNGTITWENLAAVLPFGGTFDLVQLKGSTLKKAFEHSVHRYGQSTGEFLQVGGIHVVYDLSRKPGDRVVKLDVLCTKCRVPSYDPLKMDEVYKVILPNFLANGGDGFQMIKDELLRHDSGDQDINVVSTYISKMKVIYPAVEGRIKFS
Assay: CD73 in vitro enzymatic assay (colorimetric 630 nm)
Assay type: biochemical
Description: Here, D5 is the Yellow Blend, D9 is the Purple Blend, D21 is the Green Blend, D13 is the Red Blend, and D31 is CBD. As before, the red blend included Apple Extract, Pomegranate Extract, Tomato Powder, Beet; the green blend included Olive Extract, Rosemary Extract, Green Coffee Bean Extract, Kale; the orange/yellow blend included Onion Extract, Ginger Extract, Grapefruit Extract, Carrot; and the purple/blue blend included Grape, Blueberry Extract, Currant, Elderberry.
Assay Conditions: In general, all assays points were done by following the CD39 and CD73 Inhibitor Screening Assay Kit protocol (BPS Bioscience, #79278 and 72055, respectively). The CD73 enzymatic reactions were conducted in duplicate at room temperature for 30 minutes in a 50 μl mixture containing assay buffer, […], CD73 enzymes, and the test compound. Test compounds were preincubated with the enzyme for 30 minutes. Reactions were started by addition of the substrate. The 50 μl reactions were carried out in a 96-well transparent plate. After enzymatic reactions, 100 μl of Colorimetric Detection Reagent was added to the reaction mix. After a 15 minutes incubation, absorbance was measured using a Tecan plate reader at 630 nm.
Data Analysis: Enzyme activity assays were performed in duplicates at each concentration. The Absorbance intensity data were analyzed and compared. In the absence of the compound, the intensity in each data set was defined as 100% (Ce) activity. In the absence of enzyme, the intensity in each data set was defined as 0% (C0) activity.

Nc1ncnc2c1ncn2[C@@H]1O[C@H](COP(=O)(O)CP(=O)(O)O)[C@@H](O)[C@H]1O [AMPCP]
Activity (%) Repeat 1 (0.1 μM, TABLE 93): 81% | Activity (%) Repeat 2 (0.1 μM, TABLE 93): 96% | Inhibition (%) (0.1 μM, TABLE 93): 12% | Net Signal (Absorbance) Repeat 1 (0.1 μM, TABLE 93): 0.14 | Net Signal (Absorbance) Repeat 2 (0.1 μM, TABLE 93): 0.17 | Activity (%) Rep. 1 (1 μM, TABLE 90): 92% | Activity (%) Rep. 2 (1 μM, TABLE 90): 96% | Inhibition (%) (1 μM, TABLE 90): 6% | Net absorbance Rep. 1 (1 μM, TABLE 90): 0.368 | Net absorbance Rep. 2 (1 μM, TABLE 90): 0.383 | Activity (%) Rep. 1 (1 μM, TABLE 91): 89% | Activity (%) Rep. 2 (1 μM, TABLE 91): 89% | Inhibition (%) (1 μM, TABLE 91): 11% | Net absorbance Rep. 1 (1 μM, TABLE 91): 0.30 | Net absorbance Rep. 2 (1 μM, TABLE 91): 0.30 | Activity (%) Repeat 1 (1 μM, TABLE 93): 53% | Activity (%) Repeat 2 (1 μM, TABLE 93): 64% | Inhibition (%) (1 μM, TABLE 93): 41% | Net Signal (Absorbance) Repeat 1 (1 μM, TABLE 93): 0.09 | Net Signal (Absorbance) Repeat 2 (1 μM, TABLE 93): 0.11 | Activity (%) Rep. 1 (10 μM, TABLE 90): 74% | Activity (%) Rep. 2 (10 μM, TABLE 90): 76% | Inhibition (%) (10 μM, TABLE 90): 25% | Net absorbance Rep. 1 (10 μM, TABLE 90): 0.298 | Net absorbance Rep. 2 (10 μM, TABLE 90): 0.306 | Activity (%) Rep. 1 (10 μM, TABLE 91): 52% | Activity (%) Rep. 2 (10 μM, TABLE 91): 59% | Inhibition (%) (10 μM, TABLE 91): 45% | Net absorbance Rep. 1 (10 μM, TABLE 91): 0.18 | Net absorbance Rep. 2 (10 μM, TABLE 91): 0.20 | Activity (%) Repeat 1 (10 μM, TABLE 93): 20% | Activity (%) Repeat 2 (10 μM, TABLE 93): 28% | Inhibition (%) (10 μM, TABLE 93): 76% | Net Signal (Absorbance) Repeat 1 (10 μM, TABLE 93): 0.04 | Net Signal (Absorbance) Repeat 2 (10 μM, TABLE 93): 0.05 | Activity (%) Rep. 1 (100 μM, TABLE 90): 17% | Activity (%) Rep. 2 (100 μM, TABLE 90): 22% | Inhibition (%) (100 μM, TABLE 90): 80% | Net absorbance Rep. 1 (100 μM, TABLE 90): 0.071 | Net absorbance Rep. 2 (100 μM, TABLE 90): 0.089 | Activity (%) Rep. 1 (100 μM, TABLE 91): 13% | Activity (%) Rep. 2 (100 μM, TABLE 91): 12% | Inhibition (%) (100 μM, TABLE 91): 88% | Net absorbance Rep. 1 (100 μM, TABLE 91): 0.04 | Net absorbance Rep. 2 (100 μM, TABLE 91): 0.04
